For 34 molecules, IC50 and EC50 results are on record in patent US7199267B1, “Recognition of oligiosaccaride molecular targets by polycationic small molecule inhibitors and treatment of immunological disorders and infectious diseases” (MediQuest Therapeutics, Inc., priority 2005, dated 2007).

The subject of assay [1] is murine macrophage J774A.1 cells. The assay is described as follows: Nitric oxide assay (Griess): inhibition of LPS-induced NO production. Type of assay: cell-based. Conditions: purified re-synthesized leads; 10 ng/ml LPS stimulation, 16 h; read-out: NO inhibition in murine J774 cells IC50 value. As to the method:
Assessment of neutralization of LPS toxicity: NO inhibition activity. Murine monocytes (J774.A1 cells) produce measurable quantities of NO upon exposure to LPS and provide a high-throughput and validated model for the rapid and quantitative assessment of compounds in neutralizing the toxicity of LPS.^81;82;94 Compounds that neutralize LPS inhibit NO production in a dose-dependent manner from which 50% inhibitory concentrations (IC50) were determined (FIG. 4). The analogs determined to have the highest affinity in the BC-binding assay are then assayed in this NO inhibition assay (Table 1). Results in this assay parallel those in the binding assay (FIG. 5). Nitric Oxide Assay. Nitric oxide production is measured as total nitrite in murine macrophage J774A.1 cells using the Griess assay^96 as described previously.^94 J774A.1 cells are plated at ˜10^5/ml in a volume of 40 μl/well, in 384-well, flat-bottomed, cell culture treated microtiter plates and subsequently stimulated with 10 ng/ml lipopolysaccharide (LPS). Concurrent to LPS stimulation, serially diluted concentrations of test compounds are added to the cell medium and left to incubate overnight for 16 h. Polymyxin B is used as reference compound in each plate. Positive- (LPS stimulation only) and negative-controls (J774A. 1 medium only) are included in each experiment. Nitrite concentrations are measured by adding 40 μl of supernatant to equal volumes of Griess reagents ([…]; 0.1% NED solution in ddH2O and 1% sulfanilamide, 5% phosphoric acid solution in ddH2O) and incubating for 15 minutes at room temperature in the dark. Absorbance at 535 nm is measured using a Molecular Devices Spectramax M2 multifunction plate reader (Sunnyvale, Calif.). Nitrite concentrations are interpolated from standard curves obtained from serially diluted sodium nitrite standards.

The nature of assay [2]: BODIPY-TR-cadaverine (BC) fluorescence displacement assay for LPS binding affinity. Particulars: purified re-synthesized leads; half-maximal effective displacement of probe; 50 mM Tris buffer, pH 7.4; read-out: Binding affinity (BC displacement) ED50 value. From the text: Quantitative Estimation of LPS Binding Affinity. The relative binding affinities of the entire library of analogs with a recently-described high-throughput fluorescence based displacement assay, is examined using BODIPY-TR cadaverine (BC).^81;82 Results are reported as half-maximal effective displacement of probe (ED50). In all experiments, Polymyxin B (PMB), a decapeptide antibiotic, known to bind and neutralize LPS,^83–86 is used as a reference compound.
Rapid-throughput Fluorescence Displacement Assay for quantifying binding affinities to LPS. The BODIPY-TR-cadaverine (BC; (5-(((4-(4,4-difluoro-5-(2-thienyl)-4-bora-3a,4a-diaza-s-indacene-3-yl) phenoxy)acetyl)amino)pentylamine, hydrochloride; obtained from Molecular probes, Inc., Eugene, Oreg.) displacement assay to quantify the affinities of binding of compounds to LPS has been described in detail recently.^81 This assay is performed in a rapid-throughput format as follows: the first column (16 wells) of a Corning Nonbinding Surface 384-well flat-bottom black fluorescence microplate contain 15 test compounds plus polymyxin B, all at 5 mM in DMSO, and are serially diluted two-fold in 50 mM Tris buffer, pH 7.4, across the remaining 23 columns, achieving a final dilution of 0.596 nM in a volume of 40 μl. Polymyxin B (PMB), a peptide antibiotic known to bind and neutralize LPS^95 serve as the positive control and reference compound for every plate, enabling the quantitative assessment of repeatability and reproducibility (CV and Z′ factors) for the assay. Automated liquid handling is performed on a Precision 2000 automated microplate pipetting system, programmed using the Precision Power software, Bio-Tek Instruments Inc., VT, USA.

In the case of `CCCCCCCCCCCCCCCCCCNCC(=O)NCC(=O)NCCCN` [compound 1137], the IC50 – broadly, the concentration needed to halve the response being measured – in assay [1] was found to be 7.94 µM. Besides, the EC50 in assay [2] worked out at 6.61 µM.

As for `CCCCCCCCCCCCCCCCCCNCCCC(=O)NCC(=O)NCCCN` [compound 1147], in assay [1], the IC50 was determined as 6.57 µM. The EC50 in assay [2] was determined as 6.14 µM.

`CCCCCCCCCCCCCCCCCCNCCCC(=O)NCCCCCN` [compound 2329]: in assay [1], the IC50 was determined as 2.07 µM. Further, the EC50 in assay [2] was found to be 7.61 µM.

As to `CCCCCCCCCCCCCCCCCCNCC(=O)NC(Cc1ccccc1)C(=O)NCCCN` (centres unmarked) [compound 1092], the IC50 in assay [1] came to 6.74 µM. Moreover, the EC50 in assay [2] was found to be 8.8 µM.

As to `CCCCCCCCCCCCCCCCCCNCCCC(=O)NC(Cc1ccccc1)C(=O)NCCOCCN` (centres unmarked) [compound 1012], the IC50 in assay [1] was 3.78 µM. The EC50 in assay [2] turned out to be 7.68 µM.

Consider `CCCCCCCCCCCCCCCCCCNCCC(=O)NC(Cc1cnc[nH]1)C(=O)NCCOCCN` (centres unmarked) [compound 1037], for which the IC50 in assay [1] worked out at 1.88 µM. For the same molecule, the EC50 in assay [2] came to 3.17 µM.

Regarding `CCCCCCCCCCCCCCCCCCNCCC(=O)NC(Cc1ccccc1)C(=O)NCCCCCN` (centres unmarked) [compound 1187], the IC50 in assay [1] came to 4.88 µM. Besides, the EC50 in assay [2] was determined as 3850 µM.

On to `CCCCCCCCCCCCCCCCCCNCC(=O)NCCCCCN` [compound 2325], for which the IC50 in assay [1] was determined as 3.96 µM. In assay [2], the EC50 stood at 8.74 µM.

`CCCCCCCCCCCCCCCCCCNCCC(=O)NCCOCCN` [compound 2328]: in assay [1], the IC50 turned out to be 6.54 µM. Moreover, in assay [2], the EC50 worked out at 9.16 µM.

With `CCCCCCCCCCCCCCCCCCNCCCC(=O)NC(Cc1cnc[nH]1)C(=O)NCCOCCN` (centres unmarked) [compound 1042], the half-maximal inhibitory concentration (IC50) in assay [1] was 1.86 µM. Besides, in assay [2], the EC50 was 5.38 µM.

As to `CCCCCCCCCCCCCCCCCCNCCCC(=O)NC(Cc1ccccc1)C(=O)NCCCCCN` (centres unmarked) [compound 1192], the IC50 in assay [1] was 4.8 µM. The EC50 in assay [2] came out at 7.51 µM.

In the case of `CCCCCCCCCCCCCCCCCCNCC(=O)NCC(=O)NCCOCCN` [compound 1047], the IC50 in assay [1] was 11.5 µM. Moreover, the EC50 in assay [2] is 14 µM.

Turning to `CCCCCCCCCCCCCCCCCCNCCC(=O)NCC(=O)NCCCN` [compound 1142], the IC50 in assay [1] is 5.26 µM. Further, in assay [2], the EC50 was found to be 2420 µM.

`CCCCCCCCCCCCCCCCCCNCCC(=O)NCCCCCN` [compound 2327]: the 50% inhibitory concentration (IC50) in assay [1] worked out at 1.08 µM. Further, the EC50 in assay [2] is 4.03 µM.

Regarding `CCCCCCCCCCCCCCCCCCNCC(=O)NC(Cc1cnc[nH]1)C(=O)NCCCN` (centres unmarked) [compound 1122], the IC50 in assay [1] came out at 6.9 µM. Besides, the EC50 in assay [2] amounted to 4.87 µM.

On to `CCCCCCCCCCCCCCCCCCNCCCC(=O)NCCCN` [compound 2324], for which the IC50 in assay [1] is 4.87 µM. In addition, in assay [2], the EC50 was found to be 6.21 µM.

For the molecule `CCCCCCCCCCCCCCCCCCNCCC(=O)NC(Cc1ccccc1)C(=O)NCCCN` (centres unmarked) [compound 1097], the IC50 in assay [1] stood at 8.7 µM. Besides, the EC50 in assay [2] amounted to 4.13 µM.

In the case of `CCCCCCCCCCCCCCCCCCNCCCC(=O)NC(Cc1cnc[nH]1)C(=O)NCCCCCN` (centres unmarked) [compound 1222], in assay [1], the IC50 came out at 0.9 µM. For the same molecule, the EC50 in assay [2] is 18.7 µM.

As to `CCCCCCCCCCCCCCCCCCNCCCC(=O)NCCOCCN` [compound 2330], the IC50 in assay [1] is 5 µM. Besides, the EC50 in assay [2] was determined as 5.73 µM.

For the molecule `CCCCCCCCCCCCCCCCCCNCC(=O)NC(Cc1ccccc1)C(=O)NCCOCCN` (centres unmarked) [compound 1002], in assay [1], the IC50 is 17.6 µM. The EC50 in assay [2] is 12.4 µM.

With `CCCCCCCCCCCCCCCCCCNCCC(=O)NCC(=O)NCCOCCN` [compound 1052], the IC50 in assay [1] was found to be 1.84 µM. Also, the EC50 in assay [2] was determined as 14.2 µM.

Turning to `CCCCCCCCCCCCCCCCCCNCCCC(=O)NC(Cc1ccccc1)C(=O)NCCCN` (centres unmarked) [compound 1102], the IC50 in assay [1] came to 3.42 µM. Also, in assay [2], the EC50 was found to be 5.75 µM.

As to `CCCCCCCCCCCCCCCCCCNCCC(=O)NCC(=O)NCCCCCN` [compound 1232], the IC50 in assay [1] amounted to 4.61 µM. In addition, in assay [2], the EC50 is 11.2 µM.

As for `CCCCCCCCCCCCCCCCCCNCCCC(=O)NCC(=O)NCCOCCN` [compound 1057], the IC50 in assay [1] stood at 3.33 µM. Besides, the EC50 in assay [2] turned out to be 10.8 µM.

As to `CCCCCCCCCCCCCCCCCCNCCCC(=O)NCC(=O)NCCCCCN` [compound 1237], in assay [1], the IC50 is 3.22 µM. Also, in assay [2], the EC50 was 9.77 µM.

Take `CCCCCCCCCCCCCCCCCCNCCC(=O)NCCCN` [compound 2323]: the IC50 in assay [1] is 7.49 µM. Moreover, the EC50 in assay [2] stood at 9.92 µM.

Take `CCCCCCCCCCCCCCCCCCNCCCC(=O)NC(Cc1cnc[nH]1)C(=O)NCCCN` (centres unmarked) [compound 1132]: in assay [1], the IC50 is 1.83 µM. Also, the EC50 in assay [2] came to 3.01 µM.

For `CCCCCCCCCCCCCCCCCCNCC(=O)NC(Cc1cnc[nH]1)C(=O)NCCOCCN` (centres unmarked) [compound 1032], the IC50 in assay [1] amounted to 1.64 µM. Besides, the EC50 in assay [2] is 13.1 µM.

For the molecule `CCCCCCCCCCCCCCCCCCNCCC(=O)NC(Cc1cnc[nH]1)C(=O)NCCCN` (centres unmarked) [compound 1127], in assay [1], the IC50 is 8.06 µM. In assay [2], the EC50 worked out at 6.86 µM.

For `CCCCCCCCCCCCCCCCCCNCC(=O)NCC(=O)NCCCCCN` [compound 1227], the 50% inhibitory concentration (IC50) in assay [1] amounted to 3.27 µM. Besides, the EC50 in assay [2] stood at 28.2 µM.

On to `CCCCCCCCCCCCCCCCCCNCCC(=O)NC(Cc1ccccc1)C(=O)NCCOCCN` (centres unmarked) [compound 1007], for which, in assay [1], the IC50 was 2.79 µM. Also, the EC50 in assay [2] amounted to 2.54 µM.

For the molecule `CCCCCCCCCCCCCCCCCCNCC(=O)NCCCN` [compound 2322], the IC50 in assay [1] is 5.56 µM. In addition, the EC50 in assay [2] was determined as 3.8 µM.

Turning to `CCCCCCCCCCCCCCCCCCNCC(=O)NCCOCCN` [compound 2326], the IC50 in assay [1] turned out to be 9.73 µM. Moreover, in assay [2], the EC50 stood at 12.2 µM.

Turning to `CCCCCCCCCCCCCCCCCCNCC(=O)NC(Cc1cnc[nH]1)C(=O)NCCCCCN` (centres unmarked) [compound 1212], the IC50 in assay [1] is 2.04 µM. In addition, the EC50 in assay [2] was found to be 12.1 µM.
